In US20140357577A1, “HIV Membrane Fusion Inhibitors” (priority 2011, published 2014):
Starred links: 1 amine or outer side, 2 acyl side, 3 side chain; linkers in the order of their positions; H or OH if unused. Non-standard residues stand in square brackets, D forms with d. *: point of attachment. cholesteryl‑oxycarbonylmethyl = CC(C)CCC[C@@H](C)[C@H]1CC[C@H]2[C@@H]3CC=C4C[C@@H](OC(=O)C*)CC[C@]4(C)[C@H]3CC[C@]12C; C(Bzl) = O=C([C@H](CSCc1ccccc1)N[*:1])[*:2]; tBuAla = CC(C)(C)C[C@H](N)C(=O)O; Suc = O=C(CCC(=O)[*:2])[*:1]; Isovaleryl = CC(C)CC(=O)*; hCys = N[C@@H](CCS)C(=O)O; Nva = CCC[C@H](N)C(=O)O; Tba = not defined here

Legend:
[1] = test system: HIV mutant virus strain HXB2D with mutation V38A in the gp41 gene; test: Standard AVE, HXB2D site directed mutant V38A; format: cell-based, HIV-1; details: fold change vs wild type strain HXB2D
Source text: • Standard Anti-Viral-Experiment “AVE” (wild type HIV strain IIIB+HIV strain HXB2D side directed mutants V38A and Q40H)
The HIV-1 replication assay measures virus replication (HIV wild type virus strain 111B or HXB2D, or a HIV mutant virus strain HXB2D with mutation V38A or Q40H in the gp41 gene) as an induction of enhanced green fluorescent protein (EGFP) expression. The indicator MT4-LTR-EGFP cells contain an EGFP gene under the control of the HIV-1 LTR promoter sequence. Successful HIV-1 infection results in viral Tat protein expression and subsequent induction of EGFP expression. Compounds/peptides inhibiting HIV-1 infection are expected to reduce EGFP expression as compared to the untreated HIV-infected control.
Serial 4-fold dilutions of test compounds/peptides were mixed with HIV-1 (IIIB, HXB2D, or a HXB2D mutant virus (V38A or Q40H)) and MT4-LTR-EGFP cells and incubated at 37° C. After 3 days, the wells were examined for EGFP expression using an argon laser-scanning microscope. The effective compound/peptide concentration inhibiting 50% of the virus-induced EGFP signal (EC50) was determined by linear interpolation of the EGFP signal vs. logarithm of the compound concentration; (T20, C34 and Sifuvirtide were added as reference compounds). For the V38A and Q40H mutant viruses, results were reported as a fold change in EC50, as compared with a drug-susceptible wild type strain HXB2D, which forms the backbone of the mutant virus. • Standard AVE (50% Human Serum)

HIV-IIIB + 50% HS = test: Standard AVE (50% Human Serum), HIV-1 replication assay in MT4-LTR-EGFP cells; format: cell-based; details: fold change vs EC50 in the assay without human serum
Outline: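 MT4-LTR-EGFP cells infected with HIV-1 alongside 4-fold serial compound dilutions in 50% human serum, 3 days at 37 °C. EGFP read by laser-scanning microscopy; EC50 by linear interpolation against log concentration, reported as fold change versus EC50 without serum.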

[2] = test system: HIV mutant virus strain HXB2D with mutation Q40H in the gp41 gene; test: Standard AVE, HXB2D site directed mutant Q40H; format: cell-based, HIV-1; details: fold change vs wild type strain HXB2D
Outline: (§1)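 MT4-LTR-EGFP cells infected with HIV-1 IIIB, HXB2D or HXB2D gp41 mutants V38A/Q40H alongside serial 4-fold compound dilutions, 3 days at 37° C. EGFP read by laser-scanning microscopy; EC50 by linear interpolation against log concentration. Mutant results given as fold change in EC50 versus wild-type HXB2D.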

[3] = test system: HIV wild type virus strain IIIB; test: Standard Anti-Viral-Experiment (AVE), HIV-1 replication assay in MT4-LTR-EGFP cells, wild type IIIB; format: cell-based; details: 3 days, EGFP signal
Outline: as §1

[4] = molecular target: gp41 of HIV-1 strain HXB2D with mutation Q40H (HIV-1 strain HXB2D) (UniProt P04578)
[5] = molecular target: gp41 of HIV-1 wild type strain IIIB (HIV-1 strain IIIB)

Ac-A[hCys]YAA[hCys]IEALIRKAQEQQEKNEAALR-NH2 (cysteine pairing not given here) [Peptide 80]
HIV-HXB2D V38A mutant (fold change in EC50) [1]: 40
HIV-IIIB + 50% HS (Fold change in EC50) (HIV-IIIB + 50% HS): 2
HIV-HXB2D Q40H mutant (fold change in EC50) [2]: 375
EC50 [3]: 2 nM

Isovaleryl-E-C(Bzl)-YLALIEELIRKAQEQQEKNEAALR-NH2 ({Isovaleryl-Glu-C(Bzl)}-YLALIEELIRKAQEQQEKNEAALR-NH2; SMILES CC[C@H](C)[C@H](NC(=O)[C@H](CC(C)C)NC(=O)[C@H](C)NC(=O)[C@H](CC(C)C)NC(=O)[C@H](Cc1ccc(O)cc1)NC(=O)[C@H](CSCc1ccccc1)NC(=O)[C@H](CCC(=O)O)NC(=O)CC(C)C)C(=O)N[C@@H](CCC(=O)O)C(=O)N[C@@H](CCC(=O)O)C(=O)N[C@@H](CC(C)C)C(=O)N[C@H](C(=O)N[C@@H](CCCNC(=N)N)C(=O)N[C@@H](CCCCN)C(=O)N[C@@H](C)C(=O)N[C@@H](CCC(N)=O)C(=O)N[C@@H](CCC(=O)O)C(=O)N[C@@H](CCC(N)=O)C(=O)N[C@@H](CCC(N)=O)C(=O)N[C@@H](CCC(=O)O)C(=O)N[C@@H](CCCCN)C(=O)N[C@@H](CC(N)=O)C(=O)N[C@@H](CCC(=O)O)C(=O)N[C@@H](C)C(=O)N[C@@H](C)C(=O)N[C@@H](CC(C)C)C(=O)N[C@@H](CCCNC(=N)N)C(N)=O)[C@@H](C)CC) [Peptide 18]
HIV-HXB2D V38A mutant (fold change in EC50) [1]: 3
HIV-IIIB + 50% HS (Fold change in EC50) (HIV-IIIB + 50% HS): 3
HIV-HXB2D Q40H mutant (fold change in EC50) [2]: 53
EC50 [3]: 1 nM

Suc-ACYLACIEALIRA-Abu-QEQQEKNEAALR-NH2 [Peptide 47]
HIV-HXB2D V38A mutant (fold change in EC50) [1]: 17
HIV-IIIB + 50% HS (Fold change in EC50) (HIV-IIIB + 50% HS): 2
HIV-HXB2D Q40H mutant (fold change in EC50) [2]: 261
EC50 [3]: 1 nM

Suc-ACYLACIEALIRA[Nva]QEQQEKNEAALR-NH2 (cysteine pairing not given here) [Peptide 46]
HIV-HXB2D V38A mutant (fold change in EC50) [1]: 6
HIV-IIIB + 50% HS (Fold change in EC50) (HIV-IIIB + 50% HS): 2
HIV-HXB2D Q40H mutant (fold change in EC50) [2]: 42
EC50 [3]: 1 nM

Ac-ACYAACIEALIRAAQEQQEKNEAALRGSGC(cholesteryl-oxycarbonylmethyl)-NH2 [81] (Ac-ACYAACIEALIRAAQEQQEKNEAALRGSGC(cholesteryl‑oxycarbonylmethyl)-NH2; cysteine pairing not given here) [Peptide 81]
HIV-HXB2D V38A mutant (fold change in EC50) [1]: 4
HIV-IIIB + 50% HS (Fold change in EC50) (HIV-IIIB + 50% HS): 4
HIV-HXB2D Q40H mutant (fold change in EC50) [2]: 24
EC50 [3]: 0.3 nM

Ac-A[hCys]YAA[hCys]IEALIRKAQEQQEKNEAALR-NH2 (cysteine pairing not given here) [Peptide 79]
HIV-HXB2D V38A mutant (fold change in EC50) [1]: 27
HIV-IIIB + 50% HS (Fold change in EC50) (HIV-IIIB + 50% HS): 2
HIV-HXB2D Q40H mutant (fold change in EC50) [2]: 284
EC50 [3]: 5 nM

Suc-ACY-Nva-ACIEALIRAAQEQQEKNEAALR-NH2 [Peptide 44]
HIV-HXB2D V38A mutant (fold change in EC50) [1]: 15
HIV-IIIB + 50% HS (Fold change in EC50) (HIV-IIIB + 50% HS): 1
HIV-HXB2D Q40H mutant (fold change in EC50) [2]: 160
EC50 [3]: 2 nM

Suc-CYLACIEELIRKAQEQQEKNEAAL-Tba-NH2 [24] (Suc-CYLACIEELIRKAQEQQEKNEAAL-{Tba-NH2}; cysteine pairing not given here; reading uncertain; also: printed as Suc-CYLACIEELIRKAQEQQEKNEAAL-Tba-NH2) [Peptide 24]
HIV-HXB2D V38A mutant (fold change in EC50) [1]: 26
HIV-IIIB + 50% HS (Fold change in EC50) (HIV-IIIB + 50% HS): 1
HIV-HXB2D Q40H mutant (fold change in EC50) [2]: 321
EC50 [3]: 1 nM

Sifuvirtide (peptide)
fold change in EC50, HIV-HXB2D Q40H mutant [4]: 2 fold
EC50 of HIV-IIIB replication (EGFP) [5]: 2 nM
fold change in EC50, HIV-IIIB + 50% HS [5]: 1 fold

Ac-A[hCys]YAA[hCys]IEALIRAAQEQQEKNEAALR-NH2 (cysteine pairing not given here) [Peptide 78]
HIV-HXB2D V38A mutant (fold change in EC50) [1]: 61
HIV-IIIB + 50% HS (Fold change in EC50) (HIV-IIIB + 50% HS): 3
HIV-HXB2D Q40H mutant (fold change in EC50) [2]: 355
EC50 [3]: 5 nM

Suc-CYLACIEELIRKAQEQQEKNEAAL-Tba-NH2 [27] (Suc-CYLACIEELIRKAQEQQEKNEAAL[tBuAla]-NH2; cysteine pairing not given here) [Peptide 27]
HIV-HXB2D V38A mutant (fold change in EC50) [1]: 28
HIV-IIIB + 50% HS (Fold change in EC50) (HIV-IIIB + 50% HS): 0.7
HIV-HXB2D Q40H mutant (fold change in EC50) [2]: 307
EC50 [3]: 3 nM

B1: C34-PBD* (peptide)
peptide: Ac-NNYTSLIHSLIEESQNQQEKNEQELL-NH2
EC50 of HIV-IIIB replication (EGFP) [5]: > 49200 nM
